Patent US12473303B2, “4-[[(7-aminopyrazolo[1,5-a]pyrimidin-5-yl)amino methyl]piperidin-3-ol compounds and their therapeutic use” (CARRICK THERAPEUTICS LIMITED, priority 2019, dated 2025)
Like-named read-outs stand apart in the source and are kept apart here.

Experiments:
Human CDK12 wt/CycK = Human CDK12 wt/CycK (Homo sapiens (Human), UniProt Q9NYV4); test: Radiometric protein kinase assay (33PanQinase Activity Assay), CDK12; format: biochemical; details: for CDK7/CDK12: ratio greater than 1 indicated selectivity for CDK12
Procedure: (§1) A radiometric protein kinase assay (^33PanQinase® Activity Assay) was used for measuring the kinase activity of the two protein kinases (CDK12/CDK7). All kinase assays were performed in 96-well FlashPlates™ from PerkinElmer (Boston, MA, USA) in a 50 μL reaction volume.
(§2) The reaction cocktail was pipetted in four steps in the following order: • 20 μL of assay buffer (standard buffer) • 5 μL of ATP solution (in H2O) • 5 μL of test compound (in 10% DMSO) • 10 μL of substrate/10 μL of enzyme solution (premixed)
(§3) The reaction mixture was incubated at 30° C. for 60 min and then stopped by the addition of 2% (v/v) H3PO4. Plates were aspirated and washed two times with 200 μL 0.9% (w/v) NaCl. Incorporation of ^33Pi was determined with a microplate scintillation count (Microbeta, Wallac).
(§4) The fitting method used was a least-squares fit.

Human CDK7/CycH/MAT1 = Human CDK7/CycH/MAT1 (Homo sapiens (Human), UniProt P50613); test: Radiometric protein kinase assay (33PanQinase Activity Assay), CDK7; format: biochemical; details: Table 1; ATP 3 μM
Procedure: as §1, §2, §3, §4

A673 cells = test: Cellular potency in A673 cells; format: cell-based; details: for IC50: Homo sapiens, A673, Table 3, A673 cells; for Ratio of Biochemical Potency: Cellular Potency: Table 3, ratio >0.9 is an indicator of Cyclin K degradation
[1] = Table 1, ATP 0.3 μM, read-out: CDK12 IC50
[2] = Table 3, CDK12 kinase activity, read-out: Biochemical Potency IC50

Sequence of Human CDK7/CycH/MAT1 (P50613 whole entry): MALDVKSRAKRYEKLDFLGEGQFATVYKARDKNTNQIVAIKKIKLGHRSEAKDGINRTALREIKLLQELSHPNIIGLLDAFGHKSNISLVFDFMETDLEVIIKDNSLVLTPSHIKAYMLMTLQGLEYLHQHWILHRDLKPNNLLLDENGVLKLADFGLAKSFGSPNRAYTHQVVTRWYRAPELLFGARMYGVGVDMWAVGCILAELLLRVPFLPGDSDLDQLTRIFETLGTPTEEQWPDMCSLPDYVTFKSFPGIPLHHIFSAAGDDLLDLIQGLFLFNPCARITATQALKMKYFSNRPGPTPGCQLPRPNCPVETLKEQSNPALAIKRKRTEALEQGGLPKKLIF
Sequence of Human CDK7/CycH/MAT1 (P51946 whole entry partner): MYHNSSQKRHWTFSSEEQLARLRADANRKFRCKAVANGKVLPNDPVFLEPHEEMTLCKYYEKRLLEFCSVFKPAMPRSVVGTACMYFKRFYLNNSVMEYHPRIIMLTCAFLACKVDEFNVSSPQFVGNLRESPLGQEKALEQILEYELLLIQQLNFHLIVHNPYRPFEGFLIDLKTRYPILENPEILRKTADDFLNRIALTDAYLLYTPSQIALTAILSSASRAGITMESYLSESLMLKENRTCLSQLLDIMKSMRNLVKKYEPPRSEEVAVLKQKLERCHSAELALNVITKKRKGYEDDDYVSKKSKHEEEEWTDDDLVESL
Sequence of Human CDK7/CycH/MAT1 (P51948 whole entry partner): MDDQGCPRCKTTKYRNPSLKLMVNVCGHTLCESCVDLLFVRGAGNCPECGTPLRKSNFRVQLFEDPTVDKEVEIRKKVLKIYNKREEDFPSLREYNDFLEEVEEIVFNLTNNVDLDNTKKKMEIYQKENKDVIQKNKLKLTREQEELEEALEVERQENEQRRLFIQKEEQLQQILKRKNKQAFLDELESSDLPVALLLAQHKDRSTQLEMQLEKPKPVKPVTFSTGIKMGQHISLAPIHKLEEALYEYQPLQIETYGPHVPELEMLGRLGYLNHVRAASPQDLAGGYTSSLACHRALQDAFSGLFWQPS
Sequence of Human CDK12 wt/CycK (Q9NYV4 whole entry): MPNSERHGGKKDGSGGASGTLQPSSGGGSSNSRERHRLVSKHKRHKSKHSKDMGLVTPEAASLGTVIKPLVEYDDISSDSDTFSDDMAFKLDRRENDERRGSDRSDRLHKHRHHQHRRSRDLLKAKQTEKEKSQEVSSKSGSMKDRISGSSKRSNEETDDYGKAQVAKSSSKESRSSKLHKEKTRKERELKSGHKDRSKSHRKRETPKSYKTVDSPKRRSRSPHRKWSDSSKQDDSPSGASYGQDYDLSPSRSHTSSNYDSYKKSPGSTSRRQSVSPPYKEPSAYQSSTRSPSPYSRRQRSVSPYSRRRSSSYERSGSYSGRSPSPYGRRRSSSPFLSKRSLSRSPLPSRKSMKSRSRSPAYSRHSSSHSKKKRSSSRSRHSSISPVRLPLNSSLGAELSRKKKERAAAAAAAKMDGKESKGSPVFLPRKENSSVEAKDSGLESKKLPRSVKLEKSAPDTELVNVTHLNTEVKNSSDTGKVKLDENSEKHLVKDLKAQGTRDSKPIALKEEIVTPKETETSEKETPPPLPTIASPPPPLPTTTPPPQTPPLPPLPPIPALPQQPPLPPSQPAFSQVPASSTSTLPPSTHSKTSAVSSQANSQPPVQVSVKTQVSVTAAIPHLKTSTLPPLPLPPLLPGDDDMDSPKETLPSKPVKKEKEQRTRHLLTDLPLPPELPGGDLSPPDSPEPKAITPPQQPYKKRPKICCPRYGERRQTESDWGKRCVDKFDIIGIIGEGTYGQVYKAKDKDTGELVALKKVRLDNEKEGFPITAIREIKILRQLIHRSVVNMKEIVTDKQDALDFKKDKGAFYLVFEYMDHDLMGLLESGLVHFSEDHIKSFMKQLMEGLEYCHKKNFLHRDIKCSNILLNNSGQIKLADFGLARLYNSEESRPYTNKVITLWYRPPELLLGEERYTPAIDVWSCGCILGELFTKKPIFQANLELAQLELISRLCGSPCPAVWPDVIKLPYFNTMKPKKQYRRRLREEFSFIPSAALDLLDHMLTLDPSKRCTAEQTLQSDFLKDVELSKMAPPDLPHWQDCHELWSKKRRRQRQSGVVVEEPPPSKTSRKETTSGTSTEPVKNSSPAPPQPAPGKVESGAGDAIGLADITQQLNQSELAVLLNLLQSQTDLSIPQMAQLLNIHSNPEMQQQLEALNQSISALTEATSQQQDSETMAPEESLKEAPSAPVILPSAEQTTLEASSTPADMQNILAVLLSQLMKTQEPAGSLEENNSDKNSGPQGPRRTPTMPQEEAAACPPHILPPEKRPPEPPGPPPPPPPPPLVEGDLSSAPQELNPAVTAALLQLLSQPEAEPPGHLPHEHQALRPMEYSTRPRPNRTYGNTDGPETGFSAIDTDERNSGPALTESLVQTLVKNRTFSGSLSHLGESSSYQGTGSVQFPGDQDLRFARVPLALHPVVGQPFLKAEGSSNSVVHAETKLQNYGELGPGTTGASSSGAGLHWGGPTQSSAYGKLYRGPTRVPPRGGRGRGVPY
Sequence of Human CDK12 wt/CycK (O75909 whole entry partner): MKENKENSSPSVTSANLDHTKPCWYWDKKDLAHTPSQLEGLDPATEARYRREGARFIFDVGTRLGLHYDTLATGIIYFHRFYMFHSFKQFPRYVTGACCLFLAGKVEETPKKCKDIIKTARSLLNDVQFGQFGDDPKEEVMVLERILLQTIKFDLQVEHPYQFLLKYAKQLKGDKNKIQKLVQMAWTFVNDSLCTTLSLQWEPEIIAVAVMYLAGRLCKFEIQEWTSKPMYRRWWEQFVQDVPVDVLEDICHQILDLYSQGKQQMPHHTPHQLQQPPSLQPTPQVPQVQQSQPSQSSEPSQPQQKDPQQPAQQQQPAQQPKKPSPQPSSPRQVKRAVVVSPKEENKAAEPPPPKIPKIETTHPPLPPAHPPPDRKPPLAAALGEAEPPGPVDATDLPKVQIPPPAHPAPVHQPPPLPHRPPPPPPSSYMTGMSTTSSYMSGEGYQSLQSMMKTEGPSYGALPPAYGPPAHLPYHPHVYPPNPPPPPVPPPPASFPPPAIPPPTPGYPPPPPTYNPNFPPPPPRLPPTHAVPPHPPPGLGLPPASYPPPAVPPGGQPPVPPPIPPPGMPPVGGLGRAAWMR

SMILES	IC50 (Human CDK12 wt/CycK; [1]) [nM]	CDK7/CDK12 (Human CDK12 wt/CycK; Table 1)	IC50 (Human CDK12 wt/CycK; [2]) [nM]	IC50 (Human CDK7/CycH/MAT1) [nM]	IC50 (A673 cells) [nM]	Ratio of Biochemical Potency: Cellular Potency (A673 cells)
CC(C)c1cnn2c(NCc3ccc4c(c3)ncn4C)cc(NC[C@H]3CCNC[C@@H]3O)nc12 [H-APPAMP-006, (3R,4R)-4-(((3-isopropyl-7-(((1-methyl-1H-benzo[d]imidazol-5-yl)methyl)amino)pyrazolo[1,5-a]pyrimidin-5-yl)amino)methyl)piperidin-3-ol]	26.9	4.72	27	127	52	0.5
CC(C)c1cnn2c(NC(C)c3cn4ccccc4n3)cc(NC[C@H]3CCNC[C@@H]3O)nc12 (stereo partly drawn) [H-APPAMP-019, (3R,4R)-4-(((7-((1-(imidazo[1,2-a]pyridin-2-yl)ethyl)amino)-3-isopropylpyrazolo[1,5-a]pyrimidin-5-yl)amino)methyl)piperidin-3-ol]	522	1.2	522	640	76.9	6.8
CC(C)c1cnn2c(NCc3cnc4ccccc4c3)cc(NC[C@H]3CCNC[C@@H]3O)nc12 [H-APPAMP-021, (3R,4R)-4-(((3-isopropyl-7-((quinolin-3-ylmethyl)amino)pyrazolo[1,5-a]pyrimidin-5-yl)amino)methyl)piperidin-3-ol]	167	0.2	167	28	2.7	62
Cc1c(CNc2cc(NC[C@H]3CCNC[C@@H]3O)nc3c(C(C)C)cnn23)nc2ccccn12 [H-APPAMP-017, (3R,4R)-4-(((3-isopropyl-7-(((3-methylimidazo[1,2-a]pyridin-2-yl)methyl)amino)pyrazolo[1,5-a]pyrimidin-5-yl)amino)methyl)piperidin-3-ol]	63	0.6	143	40	8.3	17.2
Cc1csc2nc(CNc3cc(NC[C@H]4CCNC[C@@H]4O)nc4c(C(C)C)cnn34)cn12 [H-APPAMP-007, (3R,4R)-4-[[[3-isopropyl-7-[(3-methylimidazo[2,1-b]thiazol-6-yl)methylamino]pyrazolo[1,5-a]pyrimidin-5-yl]amino]methyl]piperidin-3-ol]	20	7.90	20	158	27	0.7
O[C@H]1CNCC[C@@H]1CNc1cc(NCc2cn3c(C4CC4)cccc3n2)n2ncc(C3CC3)c2n1 [H-APPAMP-030, (3R,4R)-4-(((3-cyclopropyl-7-(((5-cyclopropylimidazo[1,2-a]pyridin-2-yl)methyl)amino)pyrazolo[1,5-a]pyrimidin-5-yl)amino)methyl)piperidin-3-ol]	75	3.7	75	274	8.7	8.6
Cc1cccn2cc(CNc3cc(NC[C@H]4CCNC[C@@H]4O)nc4c(C5CC5)cnn34)nc12 [H-APPAMP-022, (3R,4R)-4-(((3-cyclopropyl-7-(((8-methylimidazo[1,2-a]pyridin-2-yl)methyl)amino)pyrazolo[1,5-a]pyrimidin-5-yl)amino)methyl)piperidin-3-ol]	164	3.8	164	622	10.3	16
[2H]C([2H])(Nc1cc(NC[C@H]2CCNC[C@@H]2O)nc2c(C(C)C)cnn12)c1cn2ccccc2n1 [H-APPAMP-018, (3R,4R)-4-(((7-((imidazo[1,2-a]pyridin-2-ylmethyl-d2)amino)-3-isopropylpyrazolo[1,5-a]pyrimidin-5-yl)amino)methyl)piperidin-3-ol]	65	3.2	65	206	16.3	4.0
Cc1cn2cc(CNc3cc(NC[C@H]4CCNC[C@@H]4O)nc4c(C5CC5)cnn34)nc2cc1C(F)(F)F [H-APPAMP-040, (3R,4R)-4-(((3-cyclopropyl-7-(((6-methyl-7-(trifluoromethyl)imidazo[1,2-a]pyridin-2-yl)methyl)amino)pyrazolo[1,5-a]pyrimidin-5-yl)amino)methyl)piperidin-3-ol]	48	31.9	48	1530	5.4	8.9
Cc1ccn2cc(CNc3cc(NC[C@H]4CCNC[C@@H]4O)nc4c(C(C)C)cnn34)nc2c1 [H-APPAMP-009, (3R,4R)-4-(((3-isopropyl-7-(((7-methylimidazo[1,2-a]pyridin-2-yl)methyl)amino)pyrazolo[1,5-a]pyrimidin-5-yl)amino)methyl)piperidin-3-ol]	38	3.2	38	123	14.9	2.6
CCc1cnn2c(NCc3cn4c(C(F)(F)F)cccc4n3)cc(NC[C@H]3CCNC[C@@H]3O)nc12 [H-APPAMP-034, (3R,4R)-4-(((3-ethyl-7-(((5-(trifluoromethyl)imidazo[1,2-a]pyridin-2-yl)methyl)amino)pyrazolo[1,5-a]pyrimidin-5-yl)amino)methyl)piperidin-3-ol]	173	0.9	173	152	12.1	14
O[C@H]1CNCC[C@@H]1CNc1cc(NCc2cn3cc(C(F)(F)F)cc(Cl)c3n2)n2ncc(C3CC3)c2n1 [H-APPAMP-033, (3R,4R)-4-(((7-(((8-chloro-6-(trifluoromethyl)imidazo[1,2-a]pyridin-2-yl)methyl)amino)-3-cyclopropylpyrazolo[1,5-a]pyrimidin-5-yl)amino)methyl)piperidin-3-ol]	62	17.1	62	1060	5.7	11
Cc1cc(C)n2cc(CNc3cc(NC[C@H]4CCNC[C@@H]4O)nc4c(C5CC5)cnn34)nc2c1 [H-APPAMP-032, (3R,4R)-4-(((3-cyclopropyl-7-(((5,7-dimethylimidazo[1,2-a]pyridin-2-yl)methyl)amino)pyrazolo[1,5-a]pyrimidin-5-yl)amino)methyl)piperidin-3-ol]	45	19.1	45	859	6.1	7.4
O[C@H]1CNCC[C@@H]1CNc1cc(NCc2cn3ccc(C(F)(F)F)cc3n2)n2ncc(C3CC3)c2n1 [H-APPAMP-035, (3R,4R)-4-(((3-cyclopropyl-7-(((7-(trifluoromethyl)imidazo[1,2-a]pyridin-2-yl)methyl)amino)pyrazolo[1,5-a]pyrimidin-5-yl)amino)methyl)piperidin-3-ol]	44	29.3	44	1290	17.3	2.5
CC(C)c1cnn2c(NCc3nc4ccccn4c3C(F)(F)F)cc(NC[C@H]3CCNC[C@@H]3O)nc12 [H-APPAMP-023, (3R,4R)-4-(((3-isopropyl-7-(((3-(trifluoromethyl)imidazo[1,2-a]pyridin-2-yl)methyl)amino)pyrazolo[1,5-a]pyrimidin-5-yl)amino)methyl)piperidin-3-ol]	702	0.1	702	102	296	2.4
CCc1cnn2c(NCc3cn4c(C)cccc4n3)cc(NC[C@H]3CCNC[C@@H]3O)nc12 [H-APPAMP-031, (3R,4R)-4-(((3-ethyl-7-(((5-methylimidazo[1,2-a]pyridin-2-yl)methyl)amino)pyrazolo[1,5-a]pyrimidin-5-yl)amino)methyl)piperidin-3-ol]	24	38.3	24	919	2.2	11
COc1cccc2nc(CNc3cc(NC[C@H]4CCNC[C@@H]4O)nc4c(C5CC5)cnn34)cn12 [H-APPAMP-027, (3R,4R)-4-(((3-cyclopropyl-7-(((5-methoxyimidazo[1,2-a]pyridin-2-yl)methyl)amino)pyrazolo[1,5-a]pyrimidin-5-yl)amino)methyl)piperidin-3-ol]	28	4.5	28	127	1.6	18
CC(C)c1cnn2c(NCc3ccc4ccccc4n3)cc(NC[C@H]3CCNC[C@@H]3O)nc12 [H-APPAMP-014, (3R,4R)-4-(((3-isopropyl-7-((quinolin-2-ylmethyl)amino)pyrazolo[1,5-a]pyrimidin-5-yl)amino)methyl)piperidin-3-ol]	75	0.3	75	19	7.3	10
